According to US20230172897A1, “METHODS OF TREATING BREAST CANCERS WITH SELECTIVE ANDROGEN RECEPTOR MODULATORS AND ADDITIONAL THERAPEUTIC AGENTS” (VERU, INC., priority 2021, published 2023):
Entries after “also recorded” stand apart in the source; their conditions may differ.

Tests used:
[1] = system: MCF-7 cells stably transfected with AR; test: MCF-7-AR xenograft in ovariectomized, estradiol-supplemented nude mice (Formula VIII); type: in vivo; conditions: 30 mg/kg per day
Experimental: Once tumors reached 100-200 mm^3, the animals were randomized and treated with vehicle or 30 mg/kg per day of Formula VIII. Tumor volumes and body weights were measured thrice weekly. At the end of 5 weeks of treatment, the animals were sacrificed, tumors weighed and stored for RNA and protein isolation and histology. *significance at P<0.05.
In addition, uterus weights were measured in these xenograft studies, and Western blot from MCF-7 tumor xenografts were probed for AR.

HCI-13 tumors = test: Phospho-proteomics (protein array) of HCI-13 PDX; type: in vivo, mice
Experimental: Whole tissue lysates were directly prepared from the tissue sections using a 1:1 mixture of T-PER (Tissue Protein Extraction Reagent; Pierce, Rockford, Ill.) and 2× Tris-Glycine SDS Sample Buffer (Invitrogen, Carlsbad, Calif.) supplemented with 5% 2-mercaptoethanol. Samples were boiled for 8 minutes and stored at −80° C. until arrayed.
Samples and standard curves for internal quality assurance were printed onto nitrocellulose-coated slides (Grace Bio-labs, Bend, Oreg.) using an Aushon 2470 arrayer (Aushon BioSystems, Billerica, Mass.). Selected arrays were used to estimate the amount of protein in each sample using a Sypro Ruby Protein Blot Stain (Molecular Probes, Eugene, Oreg.) protocol following manufacturer's instructions (Pin et al. (2014) Curr Protoc Protein Sci 75, Unit 27 27). Remaining arrays were tested with a single primary antibody using an automated system (Dako Cytomation, Carpinteria, Calif.) as previously described (Baldelli et al. (2015) Oncotarget 6, 32368-32379). Arrays were first incubated with Reblot Antibody stripping solution (Chemicon, Temecula, Calif.), followed by two washes in PBS, and I-block solution (Tropix, Bedford, Mass.) for 4 hours. Arrays were probed with a total of 174 antibodies targeting a wide range of protein kinases and their activation via phosphorylation. Antibodies specificity was tested using standard immunoblotting on a panel of cell lysates. […]
The commercially available Signal Amplification System (CSA; Dako Cytomation) and a streptavidin-conjugated IRDye 680 secondary antibody (LI-COR Biosciences, Lincoln, Nebra.) were used as signal detection methods. Images were acquired on the laser-based PowerScanner (TECAN, Monnedorf, Switzerland), and data were analyzed using the MicroVigene software Version 5.1 (Vigene Tech, Carlisle, Mass.) as previously described (Baldelli et al. (2015) Oncotarget 6, 32368-32379). […]

MCF-7-AR cells = test: Growth assay (SRB), MCF-7 stably transfected with AR or GFP; type: cell-based; conditions: 6 days
Experimental: After 6 days of treatment, cells were harvested, and the number of cells was counted. […] Medium was changed after 3 days and re-treated. Cells were fixed after 6 days of treatment and the cell viability was measured by SRB assay. […] Medium was changed, and the cells were re-treated on days 4 and 7. Medium was collected, pooled from triplicates, and stored in −80° C. After 10 days of treatment, cells were fixed, and cell viability was measured using SRB. MCF-7 cells stably transfected with GFP (MCF-7-GFP) were plated in growth medium. Twenty-four hours after plating, cells were fed with the conditioned medium obtained from patient-derived fibroblasts as indicated above. Cells were fed for 10 days with conditioned medium, with medium changed on days 4 and 7. After 10 days of treatment, cells were fixed, and the viability was measured by SRB assay. […] AR-positive, but ER-negative HCI-9 PDX was surgically implanted as 1 mm^3 fragments under the mammary fat pad in NSG mice (n=8-10/group). […] Tumor volume was measured thrice weekly. […] ER-α from HCI-13 was cloned into pCR3.1 vector. […] Values are expressed as average ±S.E. from n=3-4/data point.
(§1) Cells were plated at varying densities in growth medium in 96 well plates. Cells were treated as indicated in the figures and viability measured using sulforhodamine B (SRB) or the number of cells counted using Coulter counter.

[2] = system: HCI-007 tumors (ER-positive, PR-positive, HER2-positive, AR-positive); test: HCI-007 (HCI-7) patient derived xenograft in NSG mice; type: in vivo
Experimental: HCI-007 tumor pieces (1 mm^3) were implanted surgically (one per mouse) under the skin on the flanks of NSG mice. Simultaneously, 17β-estradiol pellet (Innovative Research of America) was implanted surgically under the skin of each mouse. Tumors were allowed to grow and reach approximately 100 mm^3 volume (1*W*W*0.526). […] Tumor volume was measured weekly and represented as % change in tumor volume (FIG. 32). Mice were sacrificed and tumors stored for further analysis.
All animal protocols were approved by The University of Tennessee Health Science Center (UTHSC) Institutional Animal Care and Use Research Committee. Xenograft experiments were performed as previously published (Narayanan et al. (2014) PLoS One 9, e103202). Briefly, 3 million MCF-7 cells were suspended in 0.05 ml MEM+10% FBS and 0.05 ml Matrigel/nude mouse and were injected subcutaneously. Once the tumor size reached 100-200 mm^3, the animals were randomized and treated orally with the indicated drugs formulated in DMSO:PEG-300 (15:85). HCI-7, HCI-9, and HCI-13 PDXs were gifts kindly donated by Dr. Alana Welm (Huntsman Cancer Institute, Salt Lake City, Utah). […] Tumor volume was measured twice weekly for MCF-7 xenograft and once or twice weekly for HCI PDXs. At the end of the study, animals were sacrificed and tumors were excised, weighed, and stored for various analyses.
From the several PDXs available, three AR-positive PDXs were identified, based on gene expression profile. […] The enzalutamide dose was selected based on previous published experiments (Park et al. (2016) Cancer Invest 34, 517-520; Pollock et al. (2016) Nat Chem Biol 12, 795-801) as well as from internal experiments conducted in prostate cancer xenografts and in Hershberger studies.

[3] = system: ZR-75-1 breast cancer cells; test: Growth assay, cell count; type: cell-based; conditions: 6 days
Experimental: as §1
Although a few previous reports have shown that MCF-7 cells express AR and respond to AR ligands (Buchanan et al. (2005) Cancer Res 65, 8487-8496), the MCF-7 cell line clone in the study lacks or minimally expresses AR, which is in concordance with other reports (De Amicis et al. (2010) Breast Cancer Res Treat 121, 1-11).

SMILES: C[C@](O)(COc1ccc(C#N)cc1)C(=O)Nc1ccc(C#N)c(Cl)c1 [Formula VIII, (S)—N-(3-chloro-4-cyanophenyl)-3-(4-cyanophenoxy)-2-hydroxy-2-methylpropanamide]
- uterus weight in estrogen supplemented animals [1]: inhibited uterus weight
- inhibition of growth of MCF-7 breast cancer cell xenografts ([1]; 5 weeks): greater than 50%

SMILES: C[C@](O)(COc1ccc(C#N)cc1)C(=O)Nc1ccc(C#N)c(C(F)(F)F)c1 [Formula IX, (S)—N-(4-Cyano-3-(trifluoromethyl)phenyl)-3-(4-cyanophenoxy)-2-hydroxy-2-methylpropanamide]
- expression of proliferation marker Ki67 (HCI-13 tumors): inhibited the expression
- phosphorylation of oncogenic proteins (pERK, PKC z, RSK3, Ezrin, BCL2, ELF4G, ER) (HCI-13 tumors): inhibited the phosphorylation
- phosphorylation of tumor suppressor proteins (p53, p27, ACC, AR) (HCI-13 tumors): increased the phosphorylation
- proliferation of MCF-7 cells expressing AR (MCF-7-AR cells): inhibited proliferation
- HCI-7 tumor weights at end of study ([2]; 10 mg/kg oral): significantly smaller
- HCI-7 tumor growth ([2]; Formula IX 10 mg/kg, enzalutamide 20 or 30 mg/kg, oral): inhibited significantly; also recorded: grew slowly
- proliferation of ZR-75-1 cells [3]: significantly reduced dose dependently
